Read-outs that look alike come from different tables or passages of the source.
Key:
[1] = biological target: recombinant human IL-17AA (Homo sapiens, UniProt Q16552); assay: IL-6 release from NHDF cells, IL-17AA plus TNF-α stimulation; format: cell-based; details: IL-17AA 30 pM + TNF-α 6 pM, 24 hours, IL-6 by ELISA
How it was run: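 IL-17-specific IL-6 release from NHDF cells adhered overnight; compounds pre-incubated 30 min at room temperature with human IL-17AA plus TNF-α, then 24 h on cells at 37° C. Final DMSO 0.1% or plasma 20%; IL-6 by ELISA (450 nm). TNF-α-only IL-6 subtracted before IC50 fit.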

[2] = biological target: biotinylated human IL-17A / AF647-labeled human IL-17RA (Homo sapiens, UniProt Q16552); assay: Human IL-17A×IL-17RA TR-FRET assay; format: binding; details: 5 nM IL-17A, 30 nM IL-17RA
How it was run: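 Compounds tested in duplicate at each concentration; neutral controls contain all components with DMSO in place of compound.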

[3] = IL17AA + TNF IC50 IL-6, NHDF cells
[4] = IL17AA FRET/ IL17Rawt IC50, TR-FRET
[5] = NHDF cells, read-out: IL17AA + TNF IC50 IL-6
[6] = TR-FRET, read-out: IL17AA FRET/ IL17Rawt IC50

recombinant human IL-17AA, sequence (Q16552 24-155): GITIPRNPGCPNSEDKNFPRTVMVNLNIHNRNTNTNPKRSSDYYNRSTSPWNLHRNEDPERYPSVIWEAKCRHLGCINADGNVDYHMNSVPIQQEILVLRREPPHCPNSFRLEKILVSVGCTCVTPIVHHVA
biotinylated human IL-17A / AF647-labeled human IL-17RA, sequence (Q16552 24-155): as above

IC50 [1, 5] [nM] | IC50 [2, 6] [nM] | SMILES | IC50 [1, 3] [nM] | IC50 [2, 4] [nM]
 |  | CCn1nccc1C(=O)N[C@H](C(=O)Nc1ccc(-c2c(C)cc[n+]([O-])c2C)cc1)C1CCC(F)(F)CC1 [Example 159, (S)-3-(4-(2-(4,4-difluorocyclohexyl)-2-(1-ethyl-1H-pyrazole-5-carboxamido)acetamido)phenyl)-2,4-dimethylpyridine 1-oxide] | 31 | 100
 |  | Cc1c(-c2ccc(NC(=O)C(NC(=O)c3ccnn3C)C3CCCC(F)(F)C3)cc2)c(Cl)cc[n+]1[O-] (stereo not drawn) [Example 160, 4-chloro-3-(4-(2-(3,3-difluorocyclohexyl)-2-(1-methyl-1H-pyrazole-5-carboxamido)acetamido)phenyl)-2-methylpyridine 1-oxide] | 52.3 | 89.5
20.5 | 130 | Cc1cc[n+]([O-])c(C)c1-c1ccc(NC(=O)C(NC(=O)c2ccnn2C(C)C)C2CCCC(F)(F)C2)cc1 (stereo not drawn) [Example 161, 3-(4-(2-(3,3-difluorocyclohexyl)-2-(1-isopropyl-1H-pyrazole-5-carboxamido)acetamido)phenyl)-2,4-dimethylpyridine 1-oxide] |  | 
44 | 186 | Cc1cc[n+]([O-])c(C)c1-c1ccc(NC(=O)[C@@H](NC(=O)c2conc2C)C2CCC(F)(F)CC2)cc1 [Example 162, (S)-3-(4-(2-(4,4-difluorocyclohexyl)-2-(3-methylisoxazole-4-carboxamido)acetamido)phenyl)-2,4-dimethylpyridine 1-oxide] |  | 
68 | 191 | COCc1nocc1C(=O)N[C@H](C(=O)Nc1ccc(-c2c(Cl)cc[n+]([O-])c2C)c(F)c1)C1CCC(F)(F)CC1 [Example 163, 4-chloro-3-(4-((S)-2-(4,4-difluorocyclohexyl)-2-(3-(methoxymethyl)isoxazole-4-carboxamido)acetamido)-2-fluorophenyl)-2-methylpyridine 1-oxide] |  | 
45 | 199 | Cc1c(-c2ccc(NC(=O)[C@@H](NC(=O)c3ccc4n3CCN(C)C4)C3CCC(F)(F)CC3)cc2F)c(Cl)cc[n+]1[O-] [Example 164, 4-chloro-3-(4-((S)-2-(4,4-difluorocyclohexyl)-2-(2-methyl-1,2,3,4-tetrahydropyrrolo[1,2-a]pyrazine-6-carboxamido)acetamido)-2-fluorophenyl)-2-methylpyridine 1-oxide] |  | 
210 | 155 | Cc1cc[n+]([O-])c(C)c1-c1ccc(NC(=O)[C@@H](NC(=O)c2cnn(C)c2C)C2CCCCC2)cc1 [Example 167, (S)-3-(4-(2-cyclohexyl-2-(1,5-dimethyl-1H-pyrazole-4-carboxamido)acetamido)phenyl)-2,4-dimethylpyridine 1-oxide] |  | 
339 | 391 | Cc1cc(-c2ccc(NC(=O)[C@@H](NC(=O)c3conc3C)C3CCC(F)(F)CC3)cc2)c(C)[n+]([O-])c1 [Example 169, (S)-3-(4-(2-(4,4-difluorocyclohexyl)-2-(3-methylisoxazole-4-carboxamido)acetamido)phenyl)-2,5-dimethylpyridine 1-oxide] |  | 
 |  | CCn1nccc1C(=O)N[C@H](C(=O)Nc1ccc(-c2cc(Cl)c[n+]([O-])c2C)cc1)C1CCC(F)(F)CC1 [Example 170, (S)-5-chloro-3-(4-(2-(4,4-difluorocyclohexyl)-2-(1-ethyl-1H-pyrazole-5-carboxamido)acetamido)phenyl)-2-methylpyridine 1-oxide] | 231 | 402
 |  | Cc1cc(-c2ccc(NC(=O)[C@@H](NC(=O)c3ccnn3C)C3CCC(F)(F)CC3)cc2)c(C)[n+]([O-])c1 [Example 171, (S)-3-(4-(2-(4,4-difluorocyclohexyl)-2-(1-methyl-1H-pyrazole-5-carboxamido)acetamido)phenyl)-2,5-dimethylpyridine 1-oxide] | 398 | 465
531 | 596 | Cc1nocc1C(=O)N[C@H](C(=O)Nc1ccc(-c2cc(Cl)c[n+]([O-])c2C)c(F)c1)C1CCC(F)(F)CC1 [Example 172, (S)-5-chloro-3-(4-(2-(4,4-difluorocyclohexyl)-2-(3-methylisoxazole-4-carboxamido)acetamido)-2-fluorophenyl)-2-methylpyridine 1-oxide] |  | 
1680 | 659 | Cc1nocc1C(=O)N[C@H](C(=O)Nc1ccc(-c2cc(Cl)c[n+]([O-])c2C)cc1)C1CCC(F)(F)CC1 [Example 173, (S)-5-chloro-3-(4-(2-(4,4-difluorocyclohexyl)-2-(3-methylisoxazole-4-carboxamido)acetamido)phenyl)-2-methylpyridine 1-oxide] |  | 
 |  | Cc1c(-c2ccc(NC(=O)[C@@H](NC(=O)c3ccnn3C)C3CCC(F)(F)CC3)cc2F)cc(Cl)c[n+]1[O-] [Example 174, (S)-5-chloro-3-(4-(2-(4,4-difluorocyclohexyl)-2-(1-methyl-1H-pyrazole-5-carboxamido)acetamido)-2-fluorophenyl)-2-methylpyridine 1-oxide] | 286 | 683
 |  | Cc1c(-c2ccc(NC(=O)[C@@H](NC(=O)c3ccnn3C)C3CCCCC3)cc2)cc(Cl)c[n+]1[O-] [Example 175, (S)-5-chloro-3-(4-(2-cyclohexyl-2-(1-methyl-1H-pyrazole-5-carboxamido)acetamido)phenyl)-2-methylpyridine 1-oxide] | 130 | 846
30 | 8.96 | Cc1cc[n+]([O-])c(C)c1-c1ccc(NC(=O)C(NC(=O)c2ccc3n2CCNC3)C2CCC(C(F)(F)F)CC2)cc1 [Example 178, 2,4-dimethyl-3-(4-((S)-2-(1,2,3,4-tetrahydropyrrolo[1,2-a]pyrazine-6-carboxamido)-2-((1r,4S)-4-(trifluoromethyl)cyclohexyl)acetamido)phenyl)pyridine 1-oxide] |  | 
60 | 13.9 | Cc1c(-c2ccc(NC(=O)[C@@H](NC(=O)c3ccc4n3CCNC4)C3CCC(F)(F)CC3)cc2F)c(Cl)cc[n+]1[O-] [Example 179, 4-chloro-3-(4-((S)-2-(4,4-difluorocyclohexyl)-2-(1,2,3,4-tetrahydropyrrolo[1,2-a]pyrazine-6-carboxamido)acetamido)-2-fluorophenyl)-2-methylpyridine 1-oxide] |  | 
372 | 52 | Cc1cc[n+]([O-])c(C)c1-c1ccc(NC(=O)[C@H](Cc2ccccc2Cl)NC(=O)c2ccnn2C)cc1 [Example 180, (S)-3-(4-(3-(2-chlorophenyl)-2-(1-methyl-1H-pyrazole-5-carboxamido)propanamido)phenyl)-2,4-dimethylpyridine 1-oxide] |  | 
44.5 | 61.2 | Cc1c(-c2ccc(NC(=O)C(NC(=O)c3ccnn3C)C3CCCC(F)C3)cc2)c(Cl)cc[n+]1[O-] (stereo not drawn) [Example 182, 4-chloro-3-(4-(2-(3-fluorocyclohexyl)-2-(1-methyl-1H-pyrazole-5-carboxamido)acetamido)phenyl)-2-methylpyridine 1-oxide] |  | 
42 | 54.1 | Cc1c(-c2ccc(NC(=O)[C@@H](NC(=O)c3ccnn3C)[C@H]3CCCC(F)(F)C3)cc2)c(C(F)(F)F)cc[n+]1[O-] [Example 183, 3-(4-((S)-2-((S)-3,3-difluorocyclohexyl)-2-(1-methyl-1H-pyrazole-5-carboxamido)acetamido)phenyl)-2-methyl-4-(trifluoromethyl)pyridine 1-oxide] |  | 
11 | 59.9 | CC(=O)N1CCn2c(ccc2C(=O)N[C@H](C(=O)Nc2ccc(-c3c(Cl)cc[n+]([O-])c3C)cc2F)C2CCCCC2)C1 [Example 184, (S)-3-(4-(2-(2-acetyl-1,2,3,4-tetrahydropyrrolo[1,2-a]pyrazine-6-carboxamido)-2-cyclohexylacetamido)-3-fluorophenyl)-4-chloro-2-methylpyridine 1-oxide] |  | 
9.75 | 77.1 | CC(=O)N1CCn2ccc(C(=O)N[C@H](C(=O)Nc3ccc(-c4c(C)cc[n+]([O-])c4C)cc3)C3CCCCCC3)c2C1 [Example 185, (S)-3-(4-(2-(2-acetyl-1,2,3,4-tetrahydropyrrolo[1,2-a]pyrazine-8-carboxamido)-2-cycloheptylacetamido)phenyl)-2,4-dimethylpyridine 1-oxide] |  | 
34 | 81.5 | Cc1c(-c2ccc(NC(=O)C(NC(=O)c3ccc4n3CCNC4)C3CCCc4ccccc43)cc2F)c(Cl)cc[n+]1[O-] [Example 186, 4-chloro-3-(2-fluoro-4-((S)-2-((S)-1,2,3,4-tetrahydronaphtha]en-1-yl)-2-(1,2,3,4-tetrahydropyrrolo[1,2-a]pyrazine-6-carboxamido)acetamido)phenyl)-2-methylpyridine 1-oxide] |  | 
17 | 85.4 | CC(=O)N1CCn2c(ccc2C(=O)N[C@H](C(=O)Nc2ccc(-c3c(Cl)cc[n+]([O-])c3C)c(F)c2)C2CCCCC2)C1 [Example 187, 3-(4-((S)-2-(2-acetyl-1,2,3,4-tetrahydropyrrolo[1,2-a]pyrazine-6-carboxamido)-2-cyclohexylacetamido)-2-fluorophenyl)-4-chloro-2-methylpyridine 1-oxide] |  | 
6.05 | 104 | CC(=O)N1CCn2c(ccc2C(=O)N[C@H](C(=O)Nc2ccc(-c3c(C)cc[n+]([O-])c3C)cc2)C2CCCCCC2)C1 [Example 188, (S)-3-(4-(2-(2-acetyl-1,2,3,4-tetrahydropyrrolo[1,2-a]pyrazine-6-carboxamido)-2-cycloheptylacetamido)phenyl)-2,4-dimethylpyridine 1-oxide] |  | 

Reference: patent US12600728B2, “Interleukin-17 inhibitors” (priority 2020, dated 2026)
